Patent US20260200893A1, “INHIBITORS OF PROCASPASE-6 ACTIVATION AND USES THEREOF” (THE REGENTS OF THE UNIVERSITY OF CALIFORNIA, priority 2022, published 2026)

target: T1, procaspase-6 (Homo sapiens, UniProt P55212); assay: SPR binding affinity for procaspase-6 (avi-tagged, biotinylated construct on neutravidin chip, Biacore 8K); conditions: binding affinities for procaspase-6, SPR
T1 sequence (P55212 1-293): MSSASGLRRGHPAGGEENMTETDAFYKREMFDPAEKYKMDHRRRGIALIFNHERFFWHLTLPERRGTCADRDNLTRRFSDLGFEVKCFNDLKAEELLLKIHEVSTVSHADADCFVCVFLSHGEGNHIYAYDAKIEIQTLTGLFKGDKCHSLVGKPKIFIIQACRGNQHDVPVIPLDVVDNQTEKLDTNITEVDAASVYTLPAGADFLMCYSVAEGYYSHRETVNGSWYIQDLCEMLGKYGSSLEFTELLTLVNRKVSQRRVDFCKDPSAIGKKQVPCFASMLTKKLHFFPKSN
From the text: We used SPR to assess the binding affinity of test compounds, using an avi-tagged (biotinylated) procaspase-6 construct that was captured onto a neutravidin-coated sensor chip in a Biacore 8K instrument. […] The average of the triplicate KD values for each analog was furthermore used to calculate the experimental binding energies (ΔG) provided in the figures that follow.

Row | Compound | Kd
1 | c1ccc(-c2cccnc2NCc2cccc3cc[nH]c23)nc1 [ELG-000463] | 50 to 100 µM
2 | c1ccc(-c2cccnc2NCc2cccc3ccoc23)nc1 [ELG-000468, N-(benzofuran-7-ylmethyl)-[2,3′-bipyridin]-2′-amine] | 50 to 100 µM
3 | Fc1ccc(CNc2ncccc2-c2ccccn2)c2occc12 [ELG-000469, N-((4-fluorobenzofuran-7-yl)methyl)-[2,3′-bipyridin]-2′-amine] | 50 to 100 µM
4 | c1ccc(-c2cccnc2NCc2cccc3cn[nH]c23)nc1 [ELG-000472, N-((1H-indazol-7-yl)methyl)-[2,3′-bipyridin]-2′-amine] | 50 to 100 µM
5 | Fc1ccc(CNc2ncccc2-c2ccccn2)c2[nH]ccc12 [ELG-000483] | 50 to 100 µM
6 | c1ccc(-c2cccnc2NCc2cccc3ocnc23)nc1 [ELG-000497] | 50 to 100 µM
7 | c1ccc(-c2cccnc2NCc2cccc3ccsc23)nc1 [ELG-000510, N-(benzo[b]thiophen-7-ylmethyl)-[2,3′-bipyridin]-2′-amine] | 50 to 100 µM
8 | c1ccc(-c2cccnc2NCc2cccc3scnc23)nc1 [ELG-000511] | 50 to 100 µM
9 | Fc1ccc(CNc2ncccc2-c2ccccn2)c2sccc12 [ELG-000518] | 50 to 100 µM
10 | c1cnc(NCc2cccc3scnc23)c(-c2ncc[nH]2)c1 [ELG-000531, N-(benzo[d]thiazol-4-ylmethyl)-3-(1H-imidazol-2-yl)pyridin-2-amine] | 50 to 100 µM
11 | c1cnc(NCc2cccc3ccsc23)c(-c2ncc[nH]2)c1 [ELG-000534, N-(benzo[b]thiophen-7-ylmethyl)-3-(1H-imidazol-2-yl)pyridin-2-amine] | > 100 µM
12 | c1cnc(NCc2cccc3ccoc23)c(-c2ncc[nH]2)c1 [ELG-000535] | 50 to 100 µM
13 | Fc1ccc(CNc2ncccc2-c2ncc[nH]2)c2[nH]ccc12 [ELG-000536, N-((4-fluoro-1H-indol-7-yl)methyl)-3-(1H-imidazol-2-yl)pyridine-2-amine] | 10 to 50 µM
14 | c1cnc(NCc2cccc3ocnc23)c(-c2ncc[nH]2)c1 [ELG-000537, N-(benzo[d]oxazol-4-ylmethyl)-3-(1H-imidazol-2-yl)pyridin-2-amine] | 50 to 100 µM
15 | c1cnc(NCc2cccc3cn[nH]c23)c(-c2ncc[nH]2)c1 [ELG-000538, N-((1H-indazol-7-yl)methyl)-3-(1H-imidazol-2-yl)pyridin-2-amine] | 10 to 50 µM
16 | Fc1ccc(CNc2ncccc2-c2ncc[nH]2)c2sncc12 [ELG-000548] | 50 to 100 µM
17 | Fc1ccc(CNc2ncccc2-c2ccccn2)c2sncc12 [ELG-000549, N-((4-fluorobenzo[d]isothiazol-7-yl)methyl)-[2,3′-bipyridin]-2′-amine] | > 100 µM
18 | c1ccc(-c2cccnc2NCc2cccc3cnsc23)nc1 [ELG-000552, N-(benzo[d]isothiazol-7-ylmethyl)-[2,3′-bipyridin]-2′-amine] | 50 to 100 µM
19 | c1cnc(NCc2cccc3cnsc23)c(-c2ncc[nH]2)c1 [ELG-000558] | 50 to 100 µM
20 | c1cnnc(-c2cccnc2NCc2cccc3cnsc23)c1 [ELG-000559] | 50 to 100 µM
21 | c1cnc(NCc2cccc3cnoc23)c(-c2ncc[nH]2)c1 [ELG-000560, N-(benzo[d]isoxazol-7-ylmethyl)-3-(1H-imidazol-2-yl)pyridin-2-amine] | 10 to 50 µM
22 | c1cnnc(-c2cccnc2NCc2cccc3cnoc23)c1 [ELG-000563] | 50 to 100 µM
23 | c1ccc(-c2cccnc2NCc2cccc3cnoc23)nc1 [ELG-000567, N-(benzo[d]isoxazol-7-ylmethyl)-[2,3′-bipyridin]-2′-amine] | 50 to 100 µM

Continued, values first:

Row | Kd | Compound
24 | 10 to 50 µM | Fc1ccc(CNc2ncccc2-c2cccnn2)c2occc12 [ELG-000481, N-((4-fluorobenzofuran-7-yl)methyl)-3-(pyridazin-3-yl)pyridin-2-amine]
25 | 10 to 50 µM | c1cnnc(-c2cccnc2NCc2cccc3ccoc23)c1 [ELG-000488, N-(benzofuran-7-ylmethyl)-3-(pyridazin-3-yl) pyridin-2-amine]
26 | < 10 µM | c1cnnc(-c2cccnc2NCc2cccc3ocnc23)c1 [ELG-000491, N-(benzo[d]oxazol-4-ylmethyl)-3-(pyridazin-3-yl)pyridin-2-amine]
27 | < 10 µM | Fc1ccc(CNc2ncccc2-c2ccccn2)c2[nH]ncc12 [ELG-000499, N-((4-fluoro-1H-indazol-7-yl)methyl)-[2,3′-bipyridin]-2′-amine]
28 | 10 to 50 µM | c1cnnc(-c2cccnc2NCc2cccc3ccsc23)c1 [ELG-000502, N-(benzo[b]thiophen-7-ylmethyl)-3-(pyridazin-3-yl)pyridin-2-amine]
29 | < 10 µM | Fc1ccc(CNc2ncccc2-c2cccnn2)c2[nH]ccc12 [ELG-000504, N-((4-fluoro-1H-indol-7-yl)methyl)-3-(pyridazin-3-yl)pyridin-2-amine]
30 | < 10 µM | Fc1ccc(CNc2ncccc2-c2cccnn2)c2[nH]ncc12 [ELG-000506, N-((4-fluoro-1H-indazol-7-yl)methyl)-3-(pyridazin-3-yl)pyridin-2-amine]
31 | < 10 µM | c1cnnc(-c2cccnc2NCc2cccc3scnc23)c1 [ELG-000507, N-(benzo[d]thiazol-4-ylmethyl)-3-(pyridazin-3-yl)pyridin-2-amine]
32 | < 10 µM | Fc1ccc(CNc2ncccc2-c2cccnn2)c2sccc12 [ELG-000515, N-((4-fluorobenzo[b]thiophen-7-yl)methyl)-3-(pyridazin-3-yl)pyridin-2-amine]
33 | < 10 µM | Fc1ccc(CNc2ncccc2-c2cccnn2)c2ncsc12 [ELG-000522, N-((7-fluorobenzo[d]thiazol-4-yl)methyl)-3-(pyridazin-3-yl)pyridin-2-amine]
34 | 10 to 50 µM | c1cnc(NCc2cccc3cc[nH]c23)c(-c2ncc[nH]2)c1 [ELG-000523, N-((1H-indol-7-yl)methyl)-3-(1H-imidazol-2-yl)pyridin-2-amine]
35 | < 10 µM | Fc1ccc(CNc2ncccc2-c2ncc[nH]2)c2[nH]ncc12 [ELG-000525, N-((4-fluoro-1H-indazol-7-yl)methyl)-3-(1H-imidazol-2-yl)pyridin-2-amine]
36 | 10 to 50 µM | Fc1ccc(CNc2ncccc2-c2ncc[nH]2)c2ncsc12 [ELG-000526, N-((7-fluorobenzo[d]thiazol-4-yl)methyl)-3-(1H-imidazol-2-yl)pyridin-2-amine]
37 | 10 to 50 µM | Fc1ccc(CNc2ncccc2-c2ncc[nH]2)c2sccc12 [ELG-000530, N-((4-fluorobenzo[b]thiophen-7-yl)methyl)-3-(1H-imidazol-2-yl)pyridin-2-amine]
38 | 10 to 50 µM | Fc1ccc(CNc2ncccc2-c2cccnn2)c2sncc12 [ELG-000532, N-((4-fluorobenzo[d]isothiazol-7-yl)methyl)-3-(pyridazin-3-yl)pyridin-2-amine]
